The values below are quoted from earlier work in PMC8453963 (Chemmedchem, 2021).

Marks after values point to notes of the source that are not given here.

The conditions of this series: ref [53].

Take `O=C([O-])CN(CCN(CC(=O)[O-])Cc1cc(CCC(=O)NCCCCCC(=O)NCCCC[C@H](NC(=O)N[C@@H](CCC(=O)O)C(=O)O)C(=O)O)ccc1[O-])Cc1cc(CCC(=O)O)ccc1[O-].[68Ga+3].[OH3+]` [[^68Ga]Ga‐PSMA‐11]: the “log D oct/PBS” value is −2.91^[a].
